Structures can show the parent of a compound that is named as a salt. Where two headings read alike, the source gives them in different places. Marks after values point to notes of the source that are not given here. Blank lines part the entries; values can stand above or below the molecule they belong to.
Key:
[1] = system: patients with bipolar depression; conditions: monotherapeutic agent; cited from earlier work
[2] = system: patients with bipolar depression; conditions: 8 week trial; difference not statistically significant; cited from earlier work
[3] = system: patients with bipolar depression; conditions: 7-week trial, patients who completed the study; cited from earlier work
[4] = system: patients with bipolar depression
From the text: Criteria for Emergent Mania (any one of the following): AE (Adverse Event) or SAE
(Serious Adverse Event) of Mania. Withdrawal for AE of mania. YMRS (Young Mania Rating Scale) ≧16 on 2 consecutive or final assessment.

[5] = system: patients with bipolar depression; conditions: for Change in MADRS, Mean (SD): Bipolar I
From the text: (§1) The treatment was with quetiapine or placebo. There were 43% male and 57% female patients. The demographics also included 67% bipolar I and 33% bipolar II.

[6] = system: patients with bipolar depression; conditions: for Improvement in mean HAM-A score: endpoint (Week 8), P<0.05 vs placebo
From the text: as §1

[7] = system: patients with bipolar depression; conditions: both doses, p<0.001
[8] = system: patients with bipolar depression; remark: listed apart in the source
From the text: as §1

[9] = system: patients with bipolar depression; remark: listed apart in the source
From the text: as §1

[10] = system: patients with bipolar depression; remark: listed apart in the source
From the text: as §1

[11] = system: patients with bipolar depression; remark: listed apart in the source
From the text: as §1

[12] = treatment of bipolar depression
[13] = OC (completer) population, 300 mg/day
[14] = OC (completer) population, 600 mg/day

Compound: O=C([O-])[O-].[Li+].[Li+] [Lithium carbonate]
Patients with bipolar depression in whom monotherapy is effective [1]: approximately 50%

Compound: CCCC(CCC)C(=O)O [divalproex]
Percentage of patients with a 50% reduction in HAM-D scores without mania [2]: numerical improvement over placebo

Compound: Nc1nnc(-c2cccc(Cl)c2Cl)c(N)n1 [lamotrigine]
HAM-D and MADRS scores [3]: produced improvement in HAM-D and MADRS scores

Treatment-emergent mania, number of patients ([4]; 300 mg): 6
Treatment-emergent mania, percent of patients ([4]; 300 mg): 3.5%
Treatment-emergent mania, number of patients ([4]; 600 mg): 4
Treatment-emergent mania, percent of patients ([4]; 600 mg): 2.4%
Changes in weight ([10]; in vivo): Small dose related changes in weight
Compound: OCCOCCN1CCN(C2=Nc3ccccc3Sc3ccccc32)CC1 [quetiapine, 2-[2-(4-dibenzo [b,f] 1,4]thiazepin-11-yl-1-piperazinyl)ethoxy]-ethanol fumarate]
Association with treatment-emergent mania (switching) [4, 12]: not associated with treatment-emergent mania
MADRS effect size ([5]; Bipolar I & II): 0.6
Change in MADRS, Mean (SD) ([5]; ITT population, 300 mg/day): −17.1 (9.7)
Change in MADRS, Mean (SD) ([5]; ITT population, 600 mg/day): −18.2 (11.0)
MADRS Change ([5]; ITT population, 300 mg/day): −16.5
MADRS Change ([5]; ITT population, 600 mg/day): −16.8
MADRS Change [5, 13]: −18.6
MADRS Change [5, 14]: −20.3
Efficacy against depressive symptoms (MADRS and HAM-D) ([5]; both doses, p<0.001): Efficacy against depressive symptoms in both doses from Day 8 on
Advantage over placebo, MADRS Responder analysis ([5]; in vivo): 20%
Advantage over placebo, remission analysis ([5]; in vivo): 20%
Improvement in mean HAM-A score ([6]; about 300 mg/day): −8.6
Improvement in mean HAM-A score ([6]; about 600 mg/day): −8.7
Efficacy in anxiety symptoms (HAM-A) ([6]; both doses, p<0.01): Efficacy in anxiety symptoms (HAM-A) in both doses from Day 8 on
Clinical Improvement (CGI) [7]: Clinical Improvement (CGI) in both doses from Day 8 on
Q-LES-Q change (Δ), Mean (SD) ([8]; Week 4, 300 mg): 8.6 (9.6)^a
Q-LES-Q change (Δ), Mean (SD) ([8]; Week 4, 600 mg): 11.0 (10.7)*
Q-LES-Q change (Δ), Mean (SD) ([8]; Week 8, 300 mg): 11.7 (10.4)^a
Q-LES-Q change (Δ), Mean (SD) ([8]; Week 8, 600 mg): 16.3 (10.3)*
Q-LES-Q change (Δ), Mean (SD) ([8]; Week 8 LOCF, 600 mg): 12.2 (11.6)*
HAM-D Change ([9]; ITT population, 300 mg/day): −13.4
HAM-D Change ([9]; ITT population, 600 mg/day): −13.9
HAM-D Change [9, 13]: −15.0
HAM-D Change [9, 14]: −17.0
Adverse event trends ([10]; in vivo): No unexpected AE trends
Tolerability [10, 12]: well-tolerated in the treatment of bipolar depression with a low incidence of EPS (extrapyramidal symptoms), prolactin, sexual dysfunction and weight gain
PSQI change (Δ), Mean (SD) ([11]; Week 4, 300 mg): −4.7 (4.2)*
PSQI change (Δ), Mean (SD) ([11]; Week 4, 600 mg): −5.3 (4.9)*
PSQI change (Δ), Mean (SD) ([11]; Week 8, 300 mg): −5.3 (4.3)*
PSQI change (Δ), Mean (SD) ([11]; Week 8, 600 mg): −6.4 (4.3)*
PSQI change (Δ), Mean (SD) ([11]; Week 8 LOCF, 300 mg): −5.1 (4.3)*
Sleep component: Sleep disturbance, Mean (SD) ([11]; Week 8 LOCF, 300 mg): 1.1 (0.6)
Sleep component: Sleep duration, Mean (SD) ([11]; Week 8 LOCF, 300 mg): 0.7 (0.8)
Sleep component: Sleep dysfunction, Mean (SD) ([11]; Week 8 LOCF, 300 mg): 1.3 (0.9)
Sleep component: Sleep latency, Mean (SD) ([11]; Week 8 LOCF, 300 mg): 1.3 (1.0)
Sleep component: Sleep medication, Mean (SD) ([11]; Week 8 LOCF, 300 mg): 0.4 (0.9)
Sleep component: Sleep quality, Mean (SD) ([11]; Week 8 LOCF, 300 mg): 1.0 (0.8)
PSQI change (Δ), Mean (SD) ([11]; Week 8 LOCF, 600 mg): −5.5 (4.8)*
Sleep component: Sleep disturbance, Mean (SD) ([11]; Week 8 LOCF, 600 mg): 1.2 (0.7)
Sleep component: Sleep duration, Mean (SD) ([11]; Week 8 LOCF, 600 mg): 0.5 (0.8)
Sleep component: Sleep dysfunction, Mean (SD) ([11]; Week 8 LOCF, 600 mg): 1.4 (0.9)
Sleep component: Sleep latency, Mean (SD) ([11]; Week 8 LOCF, 600 mg): 1.3 (1.1)
Sleep component: Sleep medication, Mean (SD) ([11]; Week 8 LOCF, 600 mg): 0.4 (0.9)
Sleep component: Sleep quality, Mean (SD) ([11]; Week 8 LOCF, 600 mg): 0.8 (0.8)

Reference: US20100311718A1, “Treatment of Psychoses with Dibenzothiazepine Antipsychotic” (AstraZeneca AB, priority 2004, published 2010)
